{"source": "patent US9024017B2", "about": "“Octahydro-cyclopentapyrrolyl antagonists of CCR2” (Janssen Pharmaceutica NV, priority 2012, dated 2015)", "data": [{"target": "T1, CCR2 (Homo sapiens, UniProt P41597)", "T1 construct": "host or cells: THP-1 (human monocytic cell line)", "T1 sequence (P41597 whole entry)": "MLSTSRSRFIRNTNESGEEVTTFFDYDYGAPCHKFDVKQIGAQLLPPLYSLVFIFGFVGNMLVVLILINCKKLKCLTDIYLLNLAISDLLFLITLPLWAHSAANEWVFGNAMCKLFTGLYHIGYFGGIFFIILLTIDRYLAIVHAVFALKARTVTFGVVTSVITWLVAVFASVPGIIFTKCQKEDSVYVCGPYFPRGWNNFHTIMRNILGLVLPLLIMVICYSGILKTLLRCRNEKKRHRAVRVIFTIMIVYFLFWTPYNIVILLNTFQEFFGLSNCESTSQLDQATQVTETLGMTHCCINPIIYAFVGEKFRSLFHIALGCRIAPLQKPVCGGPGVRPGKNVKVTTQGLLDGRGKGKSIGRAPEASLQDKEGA", "assay": "MCP-1 Receptor Binding Assay in THP-1 Cells", "conditions": "read-out: MCP1B_v3 IC50", "outline": "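Human monocytic THP-1 cells incubated 2 h at 30 °C with 0.5 nM 125I-MCP-1 and varying concentrations of test compound or unlabelled MCP-1. Cells filter-harvested and counted by scintillation; blank subtracted, compared with vehicle; nonspecific binding with 1 μM cold MCP-1.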", "units": {"IC50": "nM"}, "values": [{"smiles": "COC1COCCC1N[C@@H]1C[C@H]2CN(C(=O)NC(C)C)C[C@@]2(C(=O)N2CCc3ncc(C(F)(F)F)cc3C2)C1", "note": "(relative stereo) [Example 14, (3aR,5R,6aR)-N-Isopropyl-5-(((3S*,4S*)-(3-methoxytetrahydro-2H-pyran-4-yl)amino)-3a-(3-(trifluoromethyl)-5,6,7,8-tetrahydro-1,6-naphthyridine-6-carbonyl)hexahydrocyclopenta[c]pyrrole-2(1H)-carboxamide]", "IC50": 410}, {"smiles": "COC1COCCC1N[C@@H]1C[C@H]2CN(C(=O)c3cocn3)C[C@@]2(C(=O)N2CCc3ncc(C(F)(F)F)cc3C2)C1", "note": "(relative stereo) [Example 72, ((3aR,5R,6aR)-5-(((3S*,4S*)-3-Methoxytetrahydro-2H-pyran-4-yl)amino)-2-(oxazole-4-carbonyl)octahydrocyclopenta[c]pyrrol-3a-yl)(3-(trifluoromethyl)-7,8-dihydro-1,6-naphthyridin-6(5H)-yl)methanone]", "IC50": 30}, {"smiles": "COC1COCCC1N[C@@H]1C[C@H]2CN(C3=NCCO3)C[C@@]2(C(=O)N2CCc3ncc(C(F)(F)F)cc3C2)C1", "note": "(relative stereo) [Example 113, ((3aR,5R,6aR)-2-(4,5-Dihydrooxazol-2-yl)-5-(((3S*,4S*)-3-methoxytetrahydro-2H-pyran-4-yl)amino)octahydrocyclopenta[c]pyrrol-3a-yl)(3-(trifluoromethyl)-7,8-dihydro-1,6-naphthyridin-6(5H)-yl)methanone]", "IC50": 100}, {"smiles": "CNC(=S)N(C1CCOCC1OC)[C@@H]1C[C@H]2CN(C(=O)OCc3ccccc3)C[C@@]2(C(=O)N2CCc3ncc(C(F)(F)F)cc3C2)C1", "note": "(relative stereo) [Example 57, (3aR,5R,6aR)-Benzyl 5-(1-((3S*,4S*)-3-methoxytetrahydro-2H-pyran-4-yl)-3-methylthioureido)-3a-(3-(trifluoromethyl)-5,6,7,8-tetrahydro-1,6-naphthyridine-6-carbonyl)hexahydrocyclopenta[c]pyrrole-2(1H)-carboxylate]", "IC50": 2030}, {"smiles": "COC(=O)CN1C[C@@H]2C[C@@H](NC3CCOCC3OC)C[C@]2(C(=O)N2CCc3ncc(C(F)(F)F)cc3C2)C1", "note": "(relative stereo) [Example 107, Methyl 2-((3aR,5R,6aR)-5-(((3S*,4S*)-3-methoxytetrahydro-2H-pyran-4-yl)amino)-3a-(3-(trifluoromethyl)-5,6,7,8-tetrahydro-1,6-naphthyridine-6-carbonyl)hexahydrocyclopenta[c]pyrrol-2(1H)-yl)acetate]", "IC50": 1100}, {"smiles": "COC1COCCC1N[C@@H]1C[C@H]2CN(C(C)C)C[C@@]2(C(=O)N2CCc3ncc(C(F)(F)F)cc3C2)C1", "note": "(relative stereo) [Example 96, ((3aR,5R,6aR)-2-Isopropyl-5-(((3S*,4S*)-3-methoxytetrahydro-2H-pyran-4-yl)amino)octahydrocyclopenta[c]pyrrol-3a-yl)(3-(trifluoromethyl)-7,8-dihydro-1,6-naphthyridin-6(5H)-yl)methanone]", "IC50": 1220}, {"smiles": "COC1COCCC1N[C@@H]1C[C@H]2CN(C(N)=S)C[C@@]2(C(=O)N2CCc3ncc(C(F)(F)F)cc3C2)C1", "note": "(relative stereo) [Example 25, (3aR,5R,6aR)-5-(((3S*,4S*)-3-Methoxytetrahydro-2H-pyran-4-yl)amino)-3a-(3-(trifluoromethyl)-5,6,7,8-tetrahydro-1,6-naphthyridine-6-carbonyl)hexahydrocyclopenta-[c]pyrrole-2(1H)-carbothioamide]", "IC50": 90}, {"smiles": "COC1COCCC1N[C@@H]1C[C@H]2CN(C(=O)OCc3ccc(C#N)cc3)C[C@@]2(C(=O)N2CCc3ncc(C(F)(F)F)cc3C2)C1", "note": "(relative stereo) [Example 58, (3aR,5R,6aR)-4-Cyanobenzyl 5-(((3S*,4S*)-3-methoxytetrahydro-2H-pyran-4-yl)amino)-3a-(3-(trifluoromethyl)-5,6,7,8-tetrahydro-1,6-naphthyridine-6-carbonyl)hexahydrocyclopenta-[c]pyrrole-2(1H)-carboxylate]", "IC50": 200}, {"smiles": "CO[C@@H]1COCC[C@@H]1N[C@@H]1C[C@H]2CN(C(=O)/C=C/c3ccc(C(=O)O)cc3)C[C@@]2(C(=O)N2CCc3ccc(C(F)(F)F)cc3C2)C1", "note": "(relative stereo) [Example 89, 4-((E)-3-((3aR,5R,6aR)-5-(((3S*,4S*)-3-methoxytetrahydro-2H-pyran-4-yl)amino)-3a-(7-(trifluoromethyl)-1,2,3,4-tetrahydroisoquinoline-2-carbonyl)hexahydrocyclopenta-[c]pyrrol-2(1H)-yl)-3-oxoprop-1-en-1-yl)benzoic acid]", "IC50": 10}, {"smiles": "COC1COCCC1N[C@@H]1C[C@H]2CN(C(=O)OCCN3CCCC3)C[C@@]2(C(=O)N2CCc3ccc(C(F)(F)F)cc3C2)C1", "note": "(relative stereo) [Example 46, (3aR,5R,6aR)-2-(Pyrrolidin-1-yl)ethyl 5-(((3S*,4S*)-3-methoxytetrahydro-2H-pyran-4-yl)amino)-3a-(7-(trifluoromethyl)-1,2,3,4-tetrahydroisoquinoline-2-carbonyl)hexahydrocyclopenta[c]pyrrole-2(1H)-carboxylate]", "IC50": 30}, {"smiles": "CO[C@@H]1COCC[C@@H]1N[C@@H]1C[C@H]2CN(C(=O)/C=C/c3cccc(C(=O)O)c3)C[C@@]2(C(=O)N2CCc3ccc(C(F)(F)F)cc3C2)C1", "note": "(relative stereo) [Example 90, 3-((E)-3-((3aR,5R,6aR)-5-(((3S*,4S*)-3-methoxytetrahydro-2H-pyran-4-yl)amino)-3a-(7-(trifluoromethyl)-1,2,3,4-tetrahydroisoquinoline-2-carbonyl)hexahydrocyclopenta-[c]pyrrol-2(1H)-yl)-3-oxoprop-1-en-1-yl)benzoic acid]", "IC50": 10}, {"smiles": "COC1COCCC1N[C@@H]1C[C@H]2CN(C(N)=O)C[C@@]2(C(=O)NCc2cc(F)cc(C(F)(F)F)c2)C1", "note": "(relative stereo) [Example 11, (3aR,5R,6aR)-N^3a-(3-Fluoro-5-(trifluoromethyl)benzyl)-5-(((3S*,4S*)-3-methoxytetrahydro-2H-pyran-4-yl)amino)hexahydrocyclopenta[c]pyrrole-2,3a(1H)-dicarboxamide]", "IC50": 320}, {"smiles": "COC1COCCC1N[C@@H]1C[C@H]2CN(S(N)(=O)=O)C[C@@]2(C(=O)N2CCc3ncc(C(F)(F)F)cc3C2)C1", "note": "(relative stereo) [Example 32, (3aR,5R,6aR)-5-(((3S*,4S*)-3-Methoxytetrahydro-2H-pyran-4-yl)amino)-3a-(3-(trifluoromethyl)-5,6,7,8-tetrahydro-1,6-naphthyridine-6-carbonyl)hexahydrocyclopenta-[c]pyrrole-2(1H)-sulfonamide]", "IC50": 130}, {"smiles": "CCOC1COCCC1N[C@@H]1C[C@H]2CN(C(N)=O)C[C@@]2(C(=O)N2CCc3ncc(C(F)(F)F)cc3C2)C1", "note": "(relative stereo) [Example 9, (3aR,5R,6aR)-5-(((3S*,4S*)-3-Ethoxytetrahydro-2H-pyran-4-yl)amino)-3a-(3-(trifluoromethyl)-5,6,7,8-tetrahydro-1,6-naphthyridine-6-carbonyl)hexahydrocyclopenta-[c]pyrrole-2(1H)-carboxamide]", "IC50": 190}, {"smiles": "COC1COCCC1N[C@@H]1C[C@H]2CN(CC(=O)N(C)C)C[C@@]2(C(=O)N2CCc3ncc(C(F)(F)F)cc3C2)C1", "note": "(relative stereo) [Example 106, 2-((3aR,5R,6aR)-5-(((3S*,4S*)-3-Methoxytetrahydro-2H-pyran-4-yl)amino)-3a-(3-(trifluoromethyl)-5,6,7,8-tetrahydro-1,6-naphthyridine-6-carbonyl)hexahydrocyclopenta[c]pyrrol-2(1H)-yl)-N,N-dimethylacetamide]", "IC50": 2800}, {"smiles": "COC1COCCC1N[C@@H]1C[C@H]2CN(S(C)(=O)=O)C[C@@]2(C(=O)N2CCc3ncc(C(F)(F)F)cc3C2)C1", "note": "(relative stereo) [Example 91, ((3aR,5R,6aR)-5-(((3S*,4S*)-3-Methoxytetrahydro-2H-pyran-4-yl)amino)-2-(methylsulfonyl)octahydrocyclopenta[c]pyrrol-3a-yl)(3-(trifluoromethyl)-7,8-dihydro-1,6-naphthyridin-6(5H)-yl)methanone]", "IC50": 610}, {"smiles": "COC1COCCC1N[C@@H]1C[C@H]2CN(C(=O)c3ccno3)C[C@@]2(C(=O)N2CCc3ncc(C(F)(F)F)cc3C2)C1", "note": "(relative stereo) [Example 71, Isoxazol-5-yl((3aR,5R,6aR)-5-(((3S*,4S*)-3-methoxytetrahydro-2H-pyran-4-yl)amino)-3a-(3-(trifluoromethyl)-5,6,7,8-tetrahydro-1,6-naphthyridine-6-carbonyl)hexahydrocyclopenta-[c]pyrrol-2(1H)-yl)methanone]", "IC50": 160}, {"smiles": "COC1COCCC1N[C@@H]1C[C@H]2CN(C3CCOCC3OC)C[C@@]2(C(=O)N2CCc3ncc(C(F)(F)F)cc3C2)C1", "note": "(relative stereo) [Example 104, ((3aR,5R,6aR)-2-((3S*,4S*)-3-Methoxytetrahydro-2H-pyran-4-yl)-5-(((3S*,4S*)-3-methoxytetrahydro-2H-pyran-4-yl)amino)octahydrocyclopenta[c]pyrrol-3a-yl)(3-(trifluoromethyl)-7,8-dihydro-1,6-naphthyridin-6(5H)-yl)methanone]", "IC50": 1980}, {"smiles": "COC1COCCC1N[C@@H]1C[C@H]2CN(C3COC3)C[C@@]2(C(=O)N2CCc3ncc(C(F)(F)F)cc3C2)C1", "note": "(relative stereo) [Example 99, ((3aR,5R,6aR)-5-(((3S*,4S*)-3-methoxytetrahydro-2H-pyran-4-yl)amino)-2-(oxetan-3-yl)octahydrocyclopenta[c]pyrrol-3a-yl)(3-(trifluoromethyl)-7,8-dihydro-1,6-naphthyridin-6(5H)-yl)methanone]", "IC50": 130}, {"smiles": "C=CCOC(=O)N1C[C@@H]2C[C@@H](NC3CCOCC3OC)C[C@]2(C(=O)N2CCc3ncc(C(F)(F)F)cc3C2)C1", "note": "(relative stereo) [Example 38, (3aR,5R,6aR)-Allyl 5-(((3S*,4S*)-3-methoxytetrahydro-2H-pyran-4-yl)amino)-3a-(3-(trifluoromethyl)-5,6,7,8-tetrahydro-1,6-naphthyridine-6-carbonyl)hexahydrocyclopenta[c]pyrrole-2(1H)-carboxylate]", "IC50": 40}]}]}
